Data from patent US20250051344A1, “BIFUNCTIONAL SELECTIVE DEGRADERS OF SMARCA2 AND THERAPEUTIC USES THEREOF” (Nurix Therapeutics, Inc., priority 2023, published 2025).

Key:
[1] = target: T1, SMARCA2 (Homo sapiens, UniProt P51531); assay: SMARCA2 Cellular Degradation Assay (Western blot analysis on Jess platform); format: cell-based; conditions: for DC50 / Dmax: cellular degradation; for Fold Selectivity SMARCA4/2: ratio DC50 SMARCA4 / DC50 SMARCA2
T1 construct: endogenous in cells
Method in brief: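 Cells recovered from tumors are lysed, cleared at 20,817×g, and protein is quantified by BCA. Equal protein (5 μg) is then probed on Jess for SMARCA2 and actin, and normalized SMARCA2 signal is reported against vehicle.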

[2] = target: T2, SMARCA4 (Homo sapiens, UniProt P51532); assay: Cellular degradation assay, SMARCA4 (Table 1); format: cell-based
T2 construct: endogenous in cells
T2 sequence (P51532 whole entry, species assumed): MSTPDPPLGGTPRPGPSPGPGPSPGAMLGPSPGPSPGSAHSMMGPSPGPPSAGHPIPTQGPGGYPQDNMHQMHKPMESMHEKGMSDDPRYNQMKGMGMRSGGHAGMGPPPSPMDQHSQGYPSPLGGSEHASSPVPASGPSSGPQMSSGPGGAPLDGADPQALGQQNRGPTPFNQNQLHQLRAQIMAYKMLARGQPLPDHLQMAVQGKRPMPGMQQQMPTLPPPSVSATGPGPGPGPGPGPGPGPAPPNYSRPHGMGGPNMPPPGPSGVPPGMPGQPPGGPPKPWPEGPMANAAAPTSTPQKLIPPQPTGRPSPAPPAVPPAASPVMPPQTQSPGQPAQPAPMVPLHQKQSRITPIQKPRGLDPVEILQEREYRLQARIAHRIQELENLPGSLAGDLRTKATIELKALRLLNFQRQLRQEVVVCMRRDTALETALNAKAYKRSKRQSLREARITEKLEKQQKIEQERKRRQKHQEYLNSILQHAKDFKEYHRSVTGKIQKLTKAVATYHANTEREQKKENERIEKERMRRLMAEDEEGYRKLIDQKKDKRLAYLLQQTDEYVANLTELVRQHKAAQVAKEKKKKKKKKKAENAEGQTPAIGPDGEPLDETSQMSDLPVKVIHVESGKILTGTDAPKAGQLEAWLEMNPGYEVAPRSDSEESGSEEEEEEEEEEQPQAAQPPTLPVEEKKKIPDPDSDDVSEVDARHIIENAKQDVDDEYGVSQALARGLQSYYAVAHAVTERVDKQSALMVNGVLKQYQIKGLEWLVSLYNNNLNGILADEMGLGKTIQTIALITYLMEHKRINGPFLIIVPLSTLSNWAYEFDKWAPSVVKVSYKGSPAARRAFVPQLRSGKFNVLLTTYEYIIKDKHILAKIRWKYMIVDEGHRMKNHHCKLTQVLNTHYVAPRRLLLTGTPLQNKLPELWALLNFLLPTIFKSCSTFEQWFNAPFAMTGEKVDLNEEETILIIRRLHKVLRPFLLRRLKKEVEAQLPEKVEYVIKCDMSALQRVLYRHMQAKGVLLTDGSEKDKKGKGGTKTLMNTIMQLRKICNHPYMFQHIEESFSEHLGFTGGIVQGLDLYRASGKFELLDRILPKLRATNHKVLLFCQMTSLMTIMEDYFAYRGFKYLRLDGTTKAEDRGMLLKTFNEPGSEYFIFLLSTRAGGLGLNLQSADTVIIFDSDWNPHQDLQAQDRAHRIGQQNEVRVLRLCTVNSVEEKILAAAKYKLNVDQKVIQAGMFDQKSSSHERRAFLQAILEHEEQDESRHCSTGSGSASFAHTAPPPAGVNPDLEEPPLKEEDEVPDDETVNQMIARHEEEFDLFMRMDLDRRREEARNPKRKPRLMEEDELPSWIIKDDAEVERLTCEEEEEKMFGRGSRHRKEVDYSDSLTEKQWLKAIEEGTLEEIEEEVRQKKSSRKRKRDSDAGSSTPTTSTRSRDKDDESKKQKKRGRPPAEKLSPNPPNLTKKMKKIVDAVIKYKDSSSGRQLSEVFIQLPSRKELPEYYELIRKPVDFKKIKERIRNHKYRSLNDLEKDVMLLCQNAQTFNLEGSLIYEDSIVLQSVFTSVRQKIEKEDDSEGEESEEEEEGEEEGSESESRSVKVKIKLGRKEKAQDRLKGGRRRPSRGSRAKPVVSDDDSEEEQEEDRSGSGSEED

T1 sequence (P51531 whole entry, species assumed): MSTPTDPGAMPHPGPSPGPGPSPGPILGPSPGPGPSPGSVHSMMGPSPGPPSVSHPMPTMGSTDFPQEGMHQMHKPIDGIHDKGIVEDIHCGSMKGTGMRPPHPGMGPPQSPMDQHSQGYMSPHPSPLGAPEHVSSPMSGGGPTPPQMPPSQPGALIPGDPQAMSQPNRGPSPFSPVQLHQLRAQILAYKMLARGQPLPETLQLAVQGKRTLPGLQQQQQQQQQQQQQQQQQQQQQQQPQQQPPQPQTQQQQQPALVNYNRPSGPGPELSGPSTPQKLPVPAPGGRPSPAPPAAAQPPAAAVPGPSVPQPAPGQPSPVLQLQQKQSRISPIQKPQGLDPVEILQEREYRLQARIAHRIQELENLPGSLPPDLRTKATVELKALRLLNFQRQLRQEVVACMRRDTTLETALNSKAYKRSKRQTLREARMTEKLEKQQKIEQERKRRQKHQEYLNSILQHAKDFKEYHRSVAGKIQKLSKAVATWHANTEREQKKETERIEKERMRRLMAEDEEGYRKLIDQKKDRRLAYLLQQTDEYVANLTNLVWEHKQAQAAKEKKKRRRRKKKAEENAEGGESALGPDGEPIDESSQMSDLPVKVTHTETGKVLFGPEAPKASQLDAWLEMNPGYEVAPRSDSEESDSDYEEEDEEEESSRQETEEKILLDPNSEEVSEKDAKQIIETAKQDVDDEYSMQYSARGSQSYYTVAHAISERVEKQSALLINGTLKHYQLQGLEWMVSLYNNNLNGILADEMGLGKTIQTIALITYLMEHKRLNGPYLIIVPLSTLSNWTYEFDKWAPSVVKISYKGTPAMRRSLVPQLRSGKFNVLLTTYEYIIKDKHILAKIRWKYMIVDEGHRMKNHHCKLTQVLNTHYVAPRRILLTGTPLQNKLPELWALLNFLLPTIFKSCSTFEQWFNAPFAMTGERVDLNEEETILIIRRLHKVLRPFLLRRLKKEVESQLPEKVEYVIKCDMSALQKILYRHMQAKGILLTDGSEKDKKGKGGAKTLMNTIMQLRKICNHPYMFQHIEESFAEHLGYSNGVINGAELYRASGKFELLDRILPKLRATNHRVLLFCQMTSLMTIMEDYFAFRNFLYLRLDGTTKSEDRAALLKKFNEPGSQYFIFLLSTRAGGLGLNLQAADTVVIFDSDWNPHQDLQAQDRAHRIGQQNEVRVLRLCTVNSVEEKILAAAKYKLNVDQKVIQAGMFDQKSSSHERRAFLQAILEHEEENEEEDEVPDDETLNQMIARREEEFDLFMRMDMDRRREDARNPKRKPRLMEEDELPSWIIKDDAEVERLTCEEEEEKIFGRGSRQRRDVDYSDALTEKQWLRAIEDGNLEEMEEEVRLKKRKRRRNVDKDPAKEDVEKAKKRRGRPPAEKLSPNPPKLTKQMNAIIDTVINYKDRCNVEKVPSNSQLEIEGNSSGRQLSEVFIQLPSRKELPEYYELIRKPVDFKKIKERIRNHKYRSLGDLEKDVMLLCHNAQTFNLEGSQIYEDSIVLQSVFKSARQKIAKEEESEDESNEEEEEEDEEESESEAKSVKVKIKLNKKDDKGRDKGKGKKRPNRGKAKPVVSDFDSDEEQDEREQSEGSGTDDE

Row | Compound | DC50 [1] [nM] | Dmax [1] [%] | Fold Selectivity SMARCA4/2 [1] | DC50 [2] [nM] | Dmax [2] [%]
1 | COC1(C(=O)N(C)C2CCN(C(=O)CN3CCC(c4ccc([C@@H]5CCC(=O)NC5=O)cc4)CC3)CC2)CCN(c2cnnc(-c3ccccc3O)c2)CC1 (racemic) [Example 111, rac-n-(1-(2-(4-(4-(2,6-dioxopiperidin-3-yl)phenyl)piperidin-1-yl)acetyl)piperidin-4-yl)-1-(6-(2-hydroxyphenyl)pyridazin-4-yl)-4-methoxy-n-methylpiperidine-4-carboxamide] | 11.1 | 81.4 | 19 | 210 | 57.5
2 | CN(C(=O)C1(Oc2ccccc2Cl)CCN(c2cnnc(-c3ccccc3O)c2)CC1)C1CCN(C(=O)CN2CCC(c3ccc([C@@H]4CCC(=O)NC4=O)cc3)CC2)CC1 (racemic) [Example 112] | 4.19 | 92 | 5 | 20.8 | 87.7
3 | O=C1CCC(c2ccc(C3CCN(CC(=O)N4CC5(C4)CN(C(=O)C4(Oc6ccccc6Cl)CCN(c6cnnc(-c7ccccc7O)c6)CC4)C5)CC3)cc2)C(=O)N1 (racemic) [Example 113, rac-(r)-3-(4-(1-(2-(6-(4-(2-chlorophenoxy)-1-(6-(2-hydroxyphenyl)pyridazin-4-yl)piperidine-4-carbonyl)-2,6-diazaspiro[3.3]heptan-2-yl)-2-oxoethyl)piperidin-4-yl)phenyl)piperidine-2,6-dione] | 9.76 | 83.6 | 9 | 87.4 | 63.4
4 | CN(C(=O)C1(OC2CC2)CCN(c2cnnc(-c3ccccc3O)c2)CC1)C1CCN(C(=O)CN2CCC(c3ccc([C@@H]4CCC(=O)NC4=O)cc3)CC2)CC1 (racemic) [Example 115, rac-4-cyclopropoxy-n-(1-(2-(4-(4-(2,6-dioxopiperidin-3-yl)phenyl)piperidin-1-yl)acetyl)piperidin-4-yl)-1-(6-(2-hydroxyphenyl)pyridazin-4-yl)-n-methylpiperidine-4-carboxamide] | 10.7 | 77.6 | 937 |  | 45.2
5 | Cc1ccccc1OC1(C(=O)N(C)C2CCN(C(=O)CN3CCC(c4ccc([C@@H]5CCC(=O)NC5=O)cc4)CC3)CC2)CCN(c2cnnc(-c3ccccc3O)c2)CC1 (racemic) [Example 116, rac-n-(1-(2-(4-(4-(2,6-dioxopiperidin-3-yl)phenyl)piperidin-1-yl)acetyl)piperidin-4-yl)-1-(6-(2-hydroxyphenyl)pyridazin-4-yl)-n-methyl-4-(o-tolyloxy)piperidine-4-carboxamide] | 7.97 | 88.6 | 7 | 57.4 | 75.8
6 | CN(C(=O)C1(OC2CCCCC2)CCN(c2cnnc(-c3ccccc3O)c2)CC1)C1CCN(C(=O)CN2CCC(c3ccc([C@@H]4CCC(=O)NC4=O)cc3)CC2)CC1 (racemic) [Example 117, rac-4-(cyclohexyloxy)-n-(1-(2-(4-(4-(2,6-dioxopiperidin-3-yl)phenyl)piperidin-1-yl)acetyl)piperidin-4-yl)-1-(6-(2-hydroxyphenyl)pyridazin-4-yl)-n-methylpiperidine-4-carboxamide] | 16.7 | 82.1 | 9 | 153 | 62.4
7 | O=C1CC[C@H](c2ccc(N3CCC(CCN4CCC(S(=O)(=O)NCC5(c6ccccc6)CCN(c6cnnc(-c7ccccc7O)c6)CC5)CC4)CC3)cc2)C(=O)N1 (racemic) [Example 118, rac-1-(2-(1-(4-(2,6-dioxopiperidin-3-yl)phenyl)piperidin-4-yl)ethyl)-n-((1-(6-(2-hydroxyphenyl)pyridazin-4-yl)-4-phenylpiperidin-4-yl)methyl)piperidine-4-sulfonamide] | 8.85 | 84 | 4 | 35.5 | 76.5
